Experimental data: patent US20130210899A1, “Method and Therapeutic for the Treatment and Regulation of Memory Formation” (The Regents of the University of California, priority 2010, published 2013)

Tests used:
in vivo = conditions: mouse, brain, sc, 30 mg/kg
C57BL/6J male mice [1] = experiment: Location-dependent object recognition memory (OLM) task after subthreshold training; assay type: in vivo; conditions: for memory for object location vs vehicle, OLM: 1.25 ng/side intrahippocampal after 3 min training
Experimental: Training and testing for location-dependent object recognition memory (OLM) and novel object recognition memory (ORM) was carried out as previously described. (See, e.g., Roozendaal et al., J Neurosci 30:5037-5046, 2010, the disclosure of which is incorporated herein by reference.) Prior to training, mice were handled 1-2 min for 5 days and were habituated to the experimental apparatus 3 min a day for 3 consecutive days in the absence of objects. The experimental apparatus was a white rectangular open field (30×23×21.5 cm).
(See, Stefanko et al., Proc Natl Acad Sci USA 106:9447-9452, 2009, the disclosures of which are incorporated herein by reference.) During the 24-h or 7-day retention test, mice were placed in the experimental apparatus for 5 min. For object recognition memory (ORM), one copy of the familiar object (A3) and a new object (B1) were placed in the same location as during the training trial. For location-dependent object recognition memory (OLM), one copy of the familiar object (A3) was placed in the same location as during the training trial and one copy of the familiar object (A4) was placed in the middle of the box.
(§1) All combinations and locations of objects were used in a balanced manner to reduce potential biases due to preference for particular locations or objects. All training and testing trials were videotaped and analyzed by individuals blind to the treatment condition and the genotype of subjects. A mouse was scored as exploring an object when its head was oriented toward the object within a distance of 1 cm or when the nose was touching the object. The relative exploration time was recorded and expressed by a discrimination index [DI=(tnovel−tfamiliar)/(tnovel+tfamiliar)×100].
Animals were tested for short-term memory 90 min after training.
In addition, a separate group of mice were given a 3 min training period and then a 7 day retention test.

CBP^KIX/KIX mice = experiment: OLM task in CBP KIX/KIX mutant mice after intrahippocampal infusion; assay type: in vivo; conditions: intrahippocampal 1.25 ng/side after 3 min training, 24 h
Experimental: (§2) To generate a focal deletion, mice were infused with adeno associated virus expressing Cre-recombinase (AAV2/1-Cre; Penn Vector Core, University of Pennsylvania, Philadelphia, Pa.) 2 weeks prior to behavioral procedures. Mice were anesthetized with isoflurane and placed in a digital Just For Mice stereotax (Stoelting, Wood Dale, Ill.). 1.0 μl of virus was injected at a rate of 6 μl/hr via an infusion needle positioned in the dorsal CA1 area of the hippocampus (antereoposterior (AP) −2.0; mediolateral (ML) ±1.5; dorsoventral (DV) −1.5). NCoR homozygous knock-in mice (referred to as DADm mice) were generated on C57BL/6 background using homologous recombination to incorporate a single amino acid substitution (Y478A) in the NCoR deacetylase activation domain (DAD). […]
as §1, with “[DI=(tnovel−tfamiliar)/(tnovel+tfamiliar)×100]. […]” for “[DI=(tnovel−tfamiliar)/(tnovel+tfamiliar)×100].”

H4K8Ac = experiment: Immunohistochemistry of dorsal hippocampus 2 hours after intrahippocampal infusion; assay type: in vivo, C57BL/6 mice; conditions: 1.25 ng/side intrahippocampal infusion
Experimental: (§3) Two weeks after mice were infused with AAV-Cre or two hours after hippocampal infusion of the inhibitor, mice were anesthetized deeply with sodium pentobarbital (100 mg/kg, i.p.) and perfused transcardially with ice-cold PBS, pH 7.4, followed by ice-cold 4% paraformaldehyde in PBS, pH 7.4, using a peristaltic perfusion pump (Fisher Scientific). The brains were removed, postfixed overnight at 4° C., and then transferred to 30% sucrose for 48 hr at 4° C. Brains were frozen and cryocut to 20 μm coronal slices, and sections were stored in 0.1M PBS. Floating sections were rinsed in 0.1% Triton X-100 (Fisher Scientific) in PBS, rinsed in PBS, and then blocked for 1 hr at room temperature in 8% normal goat serum (NGS, Jackson ImmunoResearch Laboratories) with 0.3% Triton X-100 in PBS. Sections were rinsed in PBS and for single labeling they were incubated overnight at 4° C. in 2% NGS, 0.3% Triton X-100 in PBS with primary antibody. The sections were then rinsed in PBS and incubated for 2 hr at room temperature with goat anti-rabbit IgG-FITC secondary antibody (1:1000, Millipore Bioscience International). […]
(§4) Images were acquired and using an Olympus (BX51, Japan) microscope using a 4× or 20× objective, CCD camera (QImaging), and QCapture Pro 6.0 software (QImaging) and quantified with ImageJ software (NIH). […]

HDAC2 = molecular target: T1, HDAC2 (Mus musculus, UniProt P70288); experiment: as above; assay type: in vivo, C57BL/6 mice; conditions: 1.25 ng/side intrahippocampal infusion
T1 construct: from tissue; host or cells: dorsal hippocampus of C57BL/6 mice
Experimental: as §3, §4

HDAC4 = experiment: as above; assay type: in vivo, C57BL/6 mice; conditions: 1.25 ng/side intrahippocampal infusion
Experimental: as §3, §4

neuronal morphology = experiment: DAPI staining of neuronal morphology after intrahippocampal infusion; assay type: in vivo, C57BL/6 mice; conditions: 1.25 ng/side intrahippocampal infusion, 2 hours
Experimental: as §3, with “International). Sections were rinsed again in PBS and mounted on slides using ProLong Gold antifade reagent with DAPI (Invitrogen).” for “International).”

C57BL/6J male mice [2] = experiment: Novel object recognition memory (ORM) task after subthreshold training; assay type: in vivo; conditions: 24 h test; for long-term memory formation vs vehicle-treated mice, ORM: 3, 10, 30 mg/kg s.c. after 3 min training; for dose-dependent effect on ORM: 3, 10, 30 mg/kg s.c.
Experimental: Training and testing for location-dependent object recognition memory (OLM) and novel object recognition memory (ORM) was carried out as previously described. […] The experimental apparatus was a white rectangular open field (30×23×21.5 cm).
24-h later mice were tested for memory retention (5 min) using the object recognition memory task, in which a familiar object was replaced with a novel one. A discrimination index (DI) above zero indicates a preference for the novel object.

CBP^+/+ mice = experiment: OLM task in CBP+/+ mice after intrahippocampal infusion; assay type: in vivo; conditions: intrahippocampal 1.25 ng/side after 3 min training, 24 h
Experimental: as §2
as §1, with “[DI=(tnovel−tfamiliar)/(tnovel+tfamiliar)×100]. […]” for “[DI=(tnovel−tfamiliar)/(tnovel+tfamiliar)×100].”

mice [3] = experiment: Extinction of cocaine conditioned place preference (CPP); assay type: in vivo; conditions: 10 mg/kg s.c. immediately following Posttest; Ext2 and Ext3
Experimental: (§5) Conditioned place preference experiments were similar to those described in Malvaez et al. (Malvaez, M., et al., Biological Psychiatry, 67, 36-43, 2010, the disclosure of which is incorporated herein by reference). Mice were briefly handled for 3 consecutive days (days 1-3). Baseline preferences were assessed by placing the animals in the three-chambered apparatus for 15 min (Pretest, day 4). Time spent in each compartment was recorded. Conditioning took place over the next 4 days with the guillotine doors closed, confining animals to a specific compartment for 30 min (days 5-8). An unbiased paradigm was used such that half of the animals were injected with cocaine (20 mg/kg, i.p.) before placement in the checkered compartment and half were injected with cocaine before placement in the white compartment (CS+). The next day, mice received 0.9% saline injection (1.0 ml/kg, i.p.) before placement in the alternate compartment (CS−). Injections were alternated for subsequent conditioning sessions. Forty-eight hours after the last conditioning session, animals had access to all 3 compartments and preference was assessed in a drug-free state (15 min, Posttest; day 10). This is also the first of the extinction sessions which occurred daily until extinction criteria were met. […]

mice [4] = experiment: Cocaine-primed reinstatement of conditioned place preference; assay type: in vivo; conditions: cocaine prime 10 mg/kg i.p.
Experimental: as §5, with “The next day, mice received 0.9% saline injection (1.0 ml/kg, i.p.) before placement in the alternate compartment (CS−). Injections were alternated for subsequent conditioning sessions.” left out, “10).” for “10). This is also the first of the extinction sessions which occurred daily until extinction criteria were met.”
In an experiment with a similar design as described above, animals were confined to a specific compartment and given cocaine (5 mg/kg, i.p.) or saline on alternating days. […] Forty-eight hours after the last conditioning session, animals had free access to all 3 compartments and preference was assessed in a drug-free state (15 min, Posttest; day 10). […]

mice [5] = experiment: Acquisition of cocaine conditioned place preference, treatment after conditioning sessions; assay type: in vivo; conditions: 10 mg/kg s.c. following each conditioning session; cocaine 5 mg/kg i.p.
Experimental: In an experiment with a similar design as described above, animals were confined to a specific compartment and given cocaine (5 mg/kg, i.p.) or saline on alternating days. Immediately following the conditioning session (30 min), mice received an injection of RGFP966 (10 mg/kg, s.c.) or vehicle and then returned to the home cage. Forty-eight hours after the last conditioning session, animals had free access to all 3 compartments and preference was assessed in a drug-free state (15 min, Posttest; day 10). CPP score indicates preference by mean±S.E.M. of time in CS+ minus CS− compartment. All groups extinguished the preference for the CS+ compartment by extinction day 6. The following day, animals received a cocaine prime (10 mg/kg, i.p.) and were placed in the test chamber (Reinstatement).
In this test, mice were conditioned with two pairings of a low dose of cocaine (5 mg/kg, i.p.) and saline. Following each conditioning session, mice received RGFP966 (10 mg/kg, s.c.) or vehicle.

T1 sequence (P70288 whole entry, the tested form may be a part): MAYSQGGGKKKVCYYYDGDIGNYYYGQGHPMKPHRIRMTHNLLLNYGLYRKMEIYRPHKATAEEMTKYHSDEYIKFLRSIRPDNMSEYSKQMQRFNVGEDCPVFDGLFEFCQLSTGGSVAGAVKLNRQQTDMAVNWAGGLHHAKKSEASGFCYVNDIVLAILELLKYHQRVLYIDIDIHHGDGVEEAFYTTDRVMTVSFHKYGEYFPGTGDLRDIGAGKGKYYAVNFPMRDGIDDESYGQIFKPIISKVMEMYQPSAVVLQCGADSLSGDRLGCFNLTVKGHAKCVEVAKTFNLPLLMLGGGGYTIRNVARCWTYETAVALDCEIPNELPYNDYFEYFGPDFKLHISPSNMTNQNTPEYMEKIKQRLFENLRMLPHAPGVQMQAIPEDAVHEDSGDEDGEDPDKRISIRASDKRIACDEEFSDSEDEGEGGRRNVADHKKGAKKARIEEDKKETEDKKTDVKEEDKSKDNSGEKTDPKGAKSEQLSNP

SMILES	Cmax (in vivo) [nM]	memory for object location vs vehicle, OLM (C57BL/6J male mice [1]; 24 hours)	memory for object location vs vehicle, OLM (C57BL/6J male mice [1]; 7 day retention test)	preference for the object in the novel location vs vehicle, OLM (C57BL/6J male mice [1]; 30 mg/kg s.c. post-training, 24 h retention test)	effect on long-term memory, OLM (CBP^KIX/KIX mice)	immunoreactivity for H4K8Ac vs vehicle (H4K8Ac)	HDAC2 expression vs vehicle (HDAC2)	HDAC4 nuclear expression vs vehicle (HDAC4)	neuronal morphology (DAPI staining) vs vehicle (neuronal morphology)	long-term memory formation vs vehicle-treated mice, ORM (C57BL/6J male mice [2])	dose-dependent effect on ORM (C57BL/6J male mice [2])	memory for novel object location vs vehicle, OLM (CBP^+/+ mice)	extinction of preference for the cocaine-paired compartment (CPP score) (mice [3])	reinstatement of preference after cocaine prime (mice [4]; 3 mg/kg received during extinction)	reinstatement of preference after cocaine prime (mice [4]; 10 mg/kg received during extinction)	effect on cocaine conditioned place preference (Posttest) (mice [5])
Cc1ccc(C(=O)NCCCCCC(=O)Nc2ccc(F)cc2N)cc1 [RGFP136, N-(6-(2-amino-4-fluorophenylamino)-6-oxohexyl)-4-methylbenzamide]	~1700	greater memory	significantly greater memory	significant preference	no effect	increase	unchanged	loss of HDAC4 nuclear expression	does not alter neuronal morphology	significantly enhanced	Significant dose-dependent effects	significantly greater memory	–	–	–	–
Nc1cc(F)ccc1NC(=O)/C=C/c1cnn(CC=Cc2ccccc2)c1 [RGFP966, (E)-N-(2-amino-4-fluorophenyl)-3-(1-cinnamyl-1H-pyrazol-4-yl)acrylamide]	–	–	–	–	–	–	–	–	–	significantly enhanced	lack of an observed dose effect	–	rapid extinction	significant preference	did not reinstate a preference	does not alter
